Assays:
Adenosine receptor A3 = target: T1, Adenosine receptor A3 (Homo sapiens, UniProt P0DMS8)
T1 sequence (P0DMS8 whole entry): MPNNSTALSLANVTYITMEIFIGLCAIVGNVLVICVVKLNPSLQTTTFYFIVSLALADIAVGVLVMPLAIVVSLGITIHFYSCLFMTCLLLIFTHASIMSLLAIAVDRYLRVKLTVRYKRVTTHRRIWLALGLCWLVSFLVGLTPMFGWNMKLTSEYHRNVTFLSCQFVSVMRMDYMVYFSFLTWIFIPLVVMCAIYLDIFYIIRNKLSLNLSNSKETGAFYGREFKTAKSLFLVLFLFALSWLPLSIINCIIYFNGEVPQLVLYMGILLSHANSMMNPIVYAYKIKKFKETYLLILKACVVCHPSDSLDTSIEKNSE

[1] = target: T2, Alpha-1A adrenergic receptor (Homo sapiens, UniProt P35348); assay type: functional, cell-based
T2 sequence (P35348 whole entry): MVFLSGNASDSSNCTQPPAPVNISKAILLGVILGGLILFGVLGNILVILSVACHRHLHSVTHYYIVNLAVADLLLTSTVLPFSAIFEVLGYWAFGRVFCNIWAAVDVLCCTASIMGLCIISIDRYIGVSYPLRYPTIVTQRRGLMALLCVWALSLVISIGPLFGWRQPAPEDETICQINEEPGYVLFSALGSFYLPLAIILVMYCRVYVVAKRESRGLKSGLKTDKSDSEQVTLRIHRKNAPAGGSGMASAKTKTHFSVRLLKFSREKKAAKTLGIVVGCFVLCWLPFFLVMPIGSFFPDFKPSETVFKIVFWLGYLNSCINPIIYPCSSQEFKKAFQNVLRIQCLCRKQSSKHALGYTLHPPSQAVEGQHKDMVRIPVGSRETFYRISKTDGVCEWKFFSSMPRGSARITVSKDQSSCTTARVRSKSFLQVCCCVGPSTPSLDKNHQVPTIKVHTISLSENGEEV

[2] = target: T3, Muscarinic acetylcholine receptor M1 (Homo sapiens, UniProt P11229); assay type: functional, cell-based
T3 sequence (P11229 whole entry): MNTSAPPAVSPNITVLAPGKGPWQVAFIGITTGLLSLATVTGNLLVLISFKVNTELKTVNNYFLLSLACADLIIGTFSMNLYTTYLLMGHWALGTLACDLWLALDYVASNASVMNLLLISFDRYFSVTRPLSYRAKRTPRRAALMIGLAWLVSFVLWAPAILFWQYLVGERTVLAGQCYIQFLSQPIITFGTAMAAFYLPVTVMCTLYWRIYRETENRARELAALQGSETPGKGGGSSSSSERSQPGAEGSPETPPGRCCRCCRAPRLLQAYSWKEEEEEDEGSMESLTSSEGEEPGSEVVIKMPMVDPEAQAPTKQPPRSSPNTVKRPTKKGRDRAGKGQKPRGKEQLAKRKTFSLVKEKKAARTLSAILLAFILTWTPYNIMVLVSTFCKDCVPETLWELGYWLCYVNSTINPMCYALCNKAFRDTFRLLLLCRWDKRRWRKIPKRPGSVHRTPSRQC

[3] = target: T4, Muscarinic acetylcholine receptor M2 (Homo sapiens, UniProt P08172)
T4 sequence (P08172 whole entry): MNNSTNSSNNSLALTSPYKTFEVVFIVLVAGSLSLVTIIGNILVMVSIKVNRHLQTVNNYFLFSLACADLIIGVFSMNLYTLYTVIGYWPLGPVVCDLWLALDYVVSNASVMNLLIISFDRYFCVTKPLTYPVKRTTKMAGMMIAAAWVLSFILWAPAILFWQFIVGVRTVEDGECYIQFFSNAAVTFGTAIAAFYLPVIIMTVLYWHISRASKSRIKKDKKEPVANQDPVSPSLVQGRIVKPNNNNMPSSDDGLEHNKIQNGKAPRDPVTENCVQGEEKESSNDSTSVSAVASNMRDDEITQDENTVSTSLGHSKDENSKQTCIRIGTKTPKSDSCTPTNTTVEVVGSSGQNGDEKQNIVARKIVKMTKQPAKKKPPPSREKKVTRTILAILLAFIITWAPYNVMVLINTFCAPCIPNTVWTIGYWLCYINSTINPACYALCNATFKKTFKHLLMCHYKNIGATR

Estrogen receptor = target: T5, Estrogen receptor (Homo sapiens, UniProt P03372)
T5 sequence (P03372 whole entry): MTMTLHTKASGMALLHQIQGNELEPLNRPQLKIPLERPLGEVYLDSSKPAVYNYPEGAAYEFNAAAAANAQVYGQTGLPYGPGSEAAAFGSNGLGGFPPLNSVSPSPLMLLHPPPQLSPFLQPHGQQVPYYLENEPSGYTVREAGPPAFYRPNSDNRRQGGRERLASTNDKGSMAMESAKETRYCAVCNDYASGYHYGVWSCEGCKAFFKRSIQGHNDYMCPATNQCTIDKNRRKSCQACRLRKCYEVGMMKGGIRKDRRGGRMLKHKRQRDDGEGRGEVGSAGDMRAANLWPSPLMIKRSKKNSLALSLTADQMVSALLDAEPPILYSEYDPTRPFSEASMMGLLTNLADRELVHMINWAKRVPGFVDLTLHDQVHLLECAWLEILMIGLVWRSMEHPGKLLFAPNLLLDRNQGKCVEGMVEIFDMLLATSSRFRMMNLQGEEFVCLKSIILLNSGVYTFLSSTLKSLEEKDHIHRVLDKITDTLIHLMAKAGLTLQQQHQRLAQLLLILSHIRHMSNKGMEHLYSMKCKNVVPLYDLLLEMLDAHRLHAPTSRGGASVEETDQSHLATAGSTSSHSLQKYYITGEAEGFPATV

Mu-type opioid receptor = Mu-type opioid receptor (Homo sapiens, UniProt P35372)
[4] = target: 3',5'-cyclic-AMP phosphodiesterase 4A (Homo sapiens, UniProt P27815); assay type: functional
[5] = target: Sodium-dependent noradrenaline transporter (Homo sapiens, UniProt P23975)
[6] = target: Sodium-dependent dopamine transporter (Homo sapiens, UniProt Q01959)
Thromboxane A2 receptor = target: T6, Thromboxane A2 receptor (Homo sapiens, UniProt P21731); assay type: functional, cell-based
T6 sequence (P21731 whole entry): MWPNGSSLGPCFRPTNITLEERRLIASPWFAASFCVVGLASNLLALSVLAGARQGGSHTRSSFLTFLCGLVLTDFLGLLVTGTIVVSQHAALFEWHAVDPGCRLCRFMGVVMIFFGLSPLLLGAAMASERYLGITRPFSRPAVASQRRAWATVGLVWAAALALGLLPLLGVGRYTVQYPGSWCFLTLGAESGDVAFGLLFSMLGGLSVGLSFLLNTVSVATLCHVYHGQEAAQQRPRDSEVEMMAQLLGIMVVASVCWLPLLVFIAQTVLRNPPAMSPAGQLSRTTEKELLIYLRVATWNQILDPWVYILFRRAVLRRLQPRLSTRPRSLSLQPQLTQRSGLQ
Note: assay procedure not described here.

Chain of Sodium-dependent dopamine transporter (Q01959 whole entry): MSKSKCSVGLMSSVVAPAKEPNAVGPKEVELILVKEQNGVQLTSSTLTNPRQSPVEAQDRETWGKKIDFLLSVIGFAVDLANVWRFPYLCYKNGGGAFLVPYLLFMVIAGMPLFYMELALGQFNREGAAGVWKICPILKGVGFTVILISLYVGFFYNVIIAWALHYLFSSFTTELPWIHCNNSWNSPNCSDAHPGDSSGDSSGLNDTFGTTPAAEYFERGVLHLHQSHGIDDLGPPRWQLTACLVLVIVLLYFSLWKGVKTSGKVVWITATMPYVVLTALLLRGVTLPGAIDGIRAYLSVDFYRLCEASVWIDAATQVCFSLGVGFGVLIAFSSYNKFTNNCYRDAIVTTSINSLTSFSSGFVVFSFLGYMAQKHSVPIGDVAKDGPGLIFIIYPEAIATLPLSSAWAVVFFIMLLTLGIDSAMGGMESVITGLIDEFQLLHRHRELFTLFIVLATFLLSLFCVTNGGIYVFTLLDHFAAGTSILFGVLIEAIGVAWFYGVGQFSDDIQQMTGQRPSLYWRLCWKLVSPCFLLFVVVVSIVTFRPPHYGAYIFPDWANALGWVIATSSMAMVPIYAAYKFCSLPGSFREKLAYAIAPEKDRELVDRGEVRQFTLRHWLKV
Chain of Mu-type opioid receptor (P35372 whole entry): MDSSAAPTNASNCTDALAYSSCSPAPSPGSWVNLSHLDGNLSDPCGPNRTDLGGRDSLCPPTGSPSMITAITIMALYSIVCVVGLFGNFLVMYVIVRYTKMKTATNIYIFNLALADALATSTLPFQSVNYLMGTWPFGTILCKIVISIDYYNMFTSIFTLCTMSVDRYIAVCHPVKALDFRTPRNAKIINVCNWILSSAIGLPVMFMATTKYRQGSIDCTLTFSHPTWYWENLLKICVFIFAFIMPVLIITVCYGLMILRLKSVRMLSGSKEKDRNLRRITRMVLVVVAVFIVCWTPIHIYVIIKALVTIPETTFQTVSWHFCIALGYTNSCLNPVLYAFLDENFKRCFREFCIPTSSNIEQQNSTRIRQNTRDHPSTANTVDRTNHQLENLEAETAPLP
Chain of 3',5'-cyclic-AMP phosphodiesterase 4A (P27815 whole entry): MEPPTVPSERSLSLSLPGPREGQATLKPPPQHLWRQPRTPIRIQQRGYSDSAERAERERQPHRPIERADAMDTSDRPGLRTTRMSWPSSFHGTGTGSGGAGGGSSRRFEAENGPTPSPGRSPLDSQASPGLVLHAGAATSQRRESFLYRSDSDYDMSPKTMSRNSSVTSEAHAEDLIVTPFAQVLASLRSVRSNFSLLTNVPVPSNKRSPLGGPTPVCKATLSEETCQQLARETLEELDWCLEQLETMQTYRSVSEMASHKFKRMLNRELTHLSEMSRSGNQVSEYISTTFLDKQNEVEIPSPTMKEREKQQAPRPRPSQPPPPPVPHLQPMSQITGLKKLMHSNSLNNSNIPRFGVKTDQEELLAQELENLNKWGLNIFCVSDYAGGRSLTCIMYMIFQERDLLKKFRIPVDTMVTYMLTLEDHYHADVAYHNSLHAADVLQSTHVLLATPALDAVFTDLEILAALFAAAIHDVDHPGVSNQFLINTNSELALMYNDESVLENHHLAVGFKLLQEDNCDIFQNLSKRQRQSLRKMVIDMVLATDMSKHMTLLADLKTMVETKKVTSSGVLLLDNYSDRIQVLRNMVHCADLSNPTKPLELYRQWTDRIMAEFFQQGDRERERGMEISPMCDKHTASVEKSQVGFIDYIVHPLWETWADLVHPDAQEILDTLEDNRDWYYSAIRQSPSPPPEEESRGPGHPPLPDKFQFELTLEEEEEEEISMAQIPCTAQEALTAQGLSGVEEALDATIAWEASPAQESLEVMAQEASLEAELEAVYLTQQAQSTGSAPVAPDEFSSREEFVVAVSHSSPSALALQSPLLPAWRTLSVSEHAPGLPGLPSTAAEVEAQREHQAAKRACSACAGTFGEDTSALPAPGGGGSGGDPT
Chain of Sodium-dependent noradrenaline transporter (P23975 whole entry): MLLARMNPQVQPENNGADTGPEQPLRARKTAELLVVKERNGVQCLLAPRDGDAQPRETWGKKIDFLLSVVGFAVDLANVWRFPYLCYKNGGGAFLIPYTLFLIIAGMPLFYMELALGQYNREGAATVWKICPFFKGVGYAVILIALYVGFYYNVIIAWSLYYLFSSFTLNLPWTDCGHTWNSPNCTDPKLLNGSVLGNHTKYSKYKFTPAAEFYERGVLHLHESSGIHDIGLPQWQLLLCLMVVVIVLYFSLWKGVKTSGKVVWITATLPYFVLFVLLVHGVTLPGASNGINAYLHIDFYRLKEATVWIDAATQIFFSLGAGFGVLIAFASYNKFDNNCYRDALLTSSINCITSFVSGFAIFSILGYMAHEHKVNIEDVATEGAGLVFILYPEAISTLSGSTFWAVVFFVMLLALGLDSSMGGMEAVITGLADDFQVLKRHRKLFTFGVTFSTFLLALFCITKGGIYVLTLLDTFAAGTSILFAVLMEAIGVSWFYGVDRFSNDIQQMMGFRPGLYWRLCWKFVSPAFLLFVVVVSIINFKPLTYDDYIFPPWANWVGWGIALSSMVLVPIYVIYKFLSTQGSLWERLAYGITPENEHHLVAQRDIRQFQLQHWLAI

Row | SMILES | AC50 (Adenosine receptor A3) [µM] | AC50 [1] [µM] | AC50 [2] [µM] | AC50 [3] [µM] | AC50 (Estrogen receptor) [µM] | AC50 (Mu-type opioid receptor) [µM] | AC50 [4] [µM] | AC50 [5] [µM] | AC50 [6] [µM] | AC50 (Thromboxane A2 receptor) [µM]
1 | CCN(CC)CCOC(=O)C(c1ccccc1)C1CCCCC1 (stereo not given) [DROFENINE] | > 30 | 9.55 | > 30 | 0.0342 | > 30 | 25.3 | > 30 | 13 | 0.219 | > 30
2 | COc1ccc(C(=O)Nc2ccccc2CCC2CCCCN2C)cc1 (stereo not given) [ENCAINIDE] | > 30 | > 30 | > 30 | > 30 | > 30 | > 30 | > 30 | > 30 | > 30 | > 30
3 | CCOc1ccccc1C(N)=O [ETHENZAMIDE] | > 30 | > 30 | > 30 | > 30 | > 30 | > 30 | > 30 | > 30 | > 30 | > 30
4 | CCOC(=O)/C=C1\SC(N2CCCCC2)C(=O)N1C (stereo not given) [ETOZOLIN] | > 30 | > 30 | > 30 | > 30 | > 30 | > 30 | > 30 | > 30 | > 30 | > 30
5 | CCCCOC(=O)C(=O)[C@H]1[C@H](C)C[C@H]2[C@@H]3C[C@H](F)C4=CC(=O)C=C[C@]4(C)[C@H]3[C@@H](O)C[C@@]21C [FLUOCORTIN BUTYL] | 7.82 | 13.1 | > 30 | > 30 | > 30 | > 30 | > 30 | 29.5 | 27.2 | > 30
6 | N[C@H]1C(O)O[C@H](CO)[C@@H](O)[C@@H]1O (stereo not given in full) [GLUCOSAMINE] | > 30 | > 30 | > 30 | > 30 | > 30 | > 30 | > 30 | > 30 | > 30 | > 30
7 | CCN(CC)CCNc1ccc(CO)c2sc3ccccc3c(=O)c12 [HYCANTHONE] | > 30 | 1.4 | > 30 | 4.47 | > 30 | 23 | > 30 | 11.9 | 12.5 | 23.1
8 | CC[C@H]1CN2CC[C@H]1C[C@H]2[C@H](O)c1ccnc2ccc(OC)cc12 [HYDROQUININE] | > 30 | > 30 | > 30 | 23.4 | > 30 | 8.13 | > 30 | > 30 | 29.1 | > 30
9 | CCN(CC)CCc1nc(-c2ccccc2)no1 [OXOLAMINE] | > 30 | > 30 | > 30 | > 30 | > 30 | > 30 | > 30 | > 30 | > 30 | > 30
10 | C[N+]1(CCCCC[N+]2(C)CCCC2)CCCC1 [PENTOLINIUM] | > 30 | > 30 | > 30 | > 30 | > 30 | > 30 | > 30 | > 30 | > 30 | > 30
11 | CC(C)(C)C(=O)OCOC(=O)[C@@H]1N2C(=O)[C@@H](NC(=O)[C@H](N)c3ccccc3)[C@H]2SC1(C)C [PIVAMPICILLIN] | > 30 | > 30 | > 30 | > 30 | > 30 | > 30 | > 30 | > 30 | > 30 | > 30
12 | O=[N+]([O-])c1cn2c(n1)OC[C@@H](OCc1ccc(OC(F)(F)F)cc1)C2 [PRETOMANID] | > 30 | > 10 | > 30 | > 30 | > 30 | > 30 | > 30 | > 30 | > 30 | > 30
13 | OC(CCN1CCCCC1)(c1ccccc1)c1ccccc1 [PRIDINOL] | > 30 | > 30 | > 30 | 0.129 | > 30 | 19.4 | > 30 | > 30 | > 30 | > 30
14 | O=C(Oc1ccc2c(c1)CCCN2C(=O)C(Cl)Cl)c1ccco1 [QUINFAMIDE] | 25.6 | 24.6 | > 30 | > 30 | 20.3 | > 30 | > 30 | > 30 | > 30 | > 30
15 | CC(C)COC(=O)OCN1C(=O)CN(CCN2CC(=O)N(COC(=O)OCC(C)C)C(=O)C2)CC1=O [SOBUZOXANE] | > 30 | > 30 | > 30 | > 30 | > 30 | > 30 | > 30 | > 30 | > 30 | > 30
16 | Cc1cc(NS(=O)(=O)c2ccc(N)cc2)nc(C)n1 [SULFISOMIDINE] | > 30 | > 30 | > 30 | > 30 | > 30 | > 30 | 3.58 | > 30 | > 30 | > 30
17 | OB1OCc2cc(F)ccc21 [TAVABOROLE] | > 30 | > 30 | > 30 | > 30 | > 30 | > 30 | > 30 | > 30 | > 30 | > 30

Source: ChEMBL document CHEMBL5291721, “A preclinical secondary pharmacology resource illuminates target-adverse drug reaction associations of marketed drugs” (Nat Commun, 2023)
